Data published in the NIST ThermoML archive (doi:10.1021/je060496l).

Experiment: xn = mol fraction of the nth substance listed
Details: 101 kPa, Liquid

OCC(O)CO [glycerol] + CC(C)O
mass density [kg/m3]
Details	x1 = 0.0676	x1 = 0.1402	x1 = 0.2185	x1 = 0.3031	x1 = 0.3949	x1 = 0.4946	x1 = 0.6036	x1 = 0.723	x1 = 0.8545	x1 = 1
298.15 K	813.5	848.6	887.5	929.1	974.3	1023.8	1077	1135.2	1196.5	1258.9
303.15 K	809.5	844.7	883.8	926.4	970.6	1020	1073.4	1131.9	1193.4	1255.6
308.15 K	805.5	840.5	879.9	922.3	967.3	1016.2	1070.4	1128.5	1190	1252.7
313.15 K	801.4	836.1	875.9	918.4	963.4	1012.6	1067	1125	1186.8	1249.5
318.15 K	796.8	831.9	871.7	914.5	959.2	1008.7	1063.1	1121.3	1183.2	1246.2
323.15 K	792.2	827.6	867.4	910.2	955.3	1004.8	1059.6	1117.6	1180.3	1242.9
328.15 K	787.5	823.3	863.3	906.2	951.3	1000.9	1055.7	1114.1	1176.6	1239.6
333.15 K	782.9	818.4	858.8	901.6	947.5	997.2	1051.9	1110.5	1173.1	1236

OCC(O)CO [glycerol] + CC(O)CO
x1 = 1
Details	mass density [kg/m3]
298.15 K	1258.9
303.15 K	1255.6
308.15 K	1252.7
313.15 K	1249.5
318.15 K	1246.2
323.15 K	1242.9
328.15 K	1239.6
333.15 K	1236

OCC(O)CO [glycerol] + OCCCO
x1 = 1
Details	mass density [kg/m3]
298.15 K	1258.9
303.15 K	1255.6
308.15 K	1252.7
313.15 K	1249.5
318.15 K	1246.2
323.15 K	1242.9
328.15 K	1239.6
333.15 K	1236

CC(O)CO (stereo unspecified) [1,2-propanediol] + OCC(O)CO
mass density [kg/m3]
Details	x2 = 0	x2 = 0.0841	x2 = 0.1712	x2 = 0.2615	x2 = 0.3552	x2 = 0.4524	x2 = 0.5534	x2 = 0.6585	x2 = 0.7677	x2 = 0.8815
298.15 K	1032.5	1052.6	1072.7	1094.1	1115.8	1138.3	1161	1184.4	1207.8	1233.3
303.15 K	1029.2	1049.2	1069.6	1090.5	1112.6	1134.8	1157.5	1181.2	1205	1230.1
308.15 K	1025.3	1045.7	1066.1	1087.1	1109.3	1131.4	1154.2	1178	1202.2	1227.4
313.15 K	1021.5	1042	1062.4	1083.8	1105.6	1128.2	1151.2	1175.1	1199.2	1224.4
318.15 K	1018	1038.5	1058.6	1080.2	1102.3	1124.8	1147.9	1171.5	1195.6	1221
323.15 K	1014	1034.7	1055	1076.3	1098.3	1121.2	1144.1	1168.1	1192.5	1218
328.15 K	1010.2	1031	1051.4	1072.7	1094.7	1117.5	1140.5	1164.6	1189	1214.7
333.15 K	1006.2	1027.2	1047.6	1069.2	1091.2	1114.3	1137.3	1161.3	1185.8	1211.3
